This passage reports IC50 results from US20090018166A1, “New Pyridine Analogues X 161” (ASTRAZENECA AB, priority 2007, published 2009).

SMILES strings stand for the structures.

For orientation: IC50 means the concentration needed to halve the response being measured.

T1 sequence (Q9H244 whole entry): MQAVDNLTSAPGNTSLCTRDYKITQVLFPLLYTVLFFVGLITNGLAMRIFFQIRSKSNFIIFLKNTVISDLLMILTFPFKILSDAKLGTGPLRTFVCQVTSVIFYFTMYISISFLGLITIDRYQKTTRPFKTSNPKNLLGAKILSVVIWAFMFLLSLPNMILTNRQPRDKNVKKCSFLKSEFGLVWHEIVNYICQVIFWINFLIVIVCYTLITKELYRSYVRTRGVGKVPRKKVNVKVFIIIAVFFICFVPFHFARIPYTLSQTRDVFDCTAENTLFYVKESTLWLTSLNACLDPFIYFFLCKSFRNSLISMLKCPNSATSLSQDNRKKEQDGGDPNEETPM

This test has as its target T1, P2Y12 receptor (Homo sapiens, UniProt Q9H244).
T1 construct: expressed in transfected cells; host or cells: CHO cells (membranes)
The test is described as follows: Functional inhibition of 2-Me-S-ADP induced P2Y12 signalling (35S-GTPγS binding, membranes from P2Y12 transfected CHO-cells). Type of test: biochemical. The following applies: 35S-GTPγS, EC80 of 2-methyl-thio-adenosine diphosphate, P2Y12 CHO membranes; value given in each example; read-out: GTPγS(IC50 μM). How it is done:
Functional inhibition of- the P2Y12 receptor can be measured by in vitro assays using cell membranes from P2Y12 transfected CHO-cells, the methodology is indicated below.
Functional inhibition of 2-Me-S-ADP induced P2Y12 signalling: 5 μg of membranes were diluted in 200 μl of 200 mM NaCl, 1 mM MgCl2, 50 mM HEPES (pH 7.4), 0.01% BSA, 30 μg/ml saponin and 10 μM GDP. To this was added an EC80 concentration of agonist (2-methyl-thio-adenosine diphosphate), the required concentration of test compound and 0.1 μCi ^35S-GTPγS. The reaction was allowed to proceed at 30° C. for 45 min. Samples were then transferred on to GF/B filters using a cell harvester and washed with wash buffer (50 mM Tris (pH 7.4), 5 mM MgCl2, 50 mM NaCl). Filters were then covered with scintilant and counted for the amount of ^35S-GTPγS retained by the filter. Maximum activity was that determined in the presence of the agonist and minimum activity in the absence of the agonist following subtraction of the value determined for non-specific activity. The effect of compounds at various concentrations was plotted according to the equation
y=A+((B−A)/(1+((C/x)̂D)))
and IC50 estimated where A is the bottom plateau of the curve i.e. the final minimum y value B is the top of the plateau of the curve i.e. the final maximum y value C is the x value at the middle of the curve. This represents the log EC50 value when A+B=100 D is the slope factor. x is the original known x values. Y is the original known y values.
On the technique in general: Binding of GTPγS marks nucleotide exchange on a G protein.
On to `CN(c1ccc(F)cc1)S(=O)(=O)NC(=O)C1CCN(c2nc(CN3CCCC3=O)c(C(=O)C3CC3)cc2C#N)CC1` [Example 25, 1-{3-Cyano-5-(cyclopropylcarbonyl)-6-[(2-oxopyrrolidin-1-yl)methyl]pyridin-2-yl}-N-{[(4-fluorophenyl)(methyl)amino]sulfonyl}piperidine-4-carboxamide], for which the IC50 was 0.026 µM. As for `C=CCCC(=O)c1cc(C#N)c(N2CCC(C(=O)NS(=O)(=O)Cc3ccccc3)CC2)nc1CN1CCCC1=O` [Example 26, N-(benzylsulfonyl)-1-{3-cyano-6-[(2-oxopyrrolidin-1-yl)methyl]-5-pent-4-enoylpyridin-2-yl}piperidine-4-carboxamide], the IC50 worked out at 0.017 µM. To `C=CCCC(=O)c1cc(C#N)c(N2CCC(C(=O)NS(=O)(=O)CC3CCCC3)CC2)nc1CN1CCCC1=O` [Example 27, 1-{3-cyano-6-[(2-oxopyrrolidin-1-yl)methyl]-5-pent-4-enoylpyridin-2-yl}-N-[(cyclopentylmethyl)sulfonyl]piperidine-4-carboxamide] belongs 0.02 µM; to `C=CCCC(=O)c1cc(C#N)c(N2CCC(C(=O)NS(=O)(=O)N(C)c3ccc(F)cc3)CC2)nc1CN1CCCC1=O` [Example 28, 1-{3-cyano-6-[(2-oxopyrrolidin-1-yl)methyl]-5-pent-4-enoylpyridin-2-yl}-N-{[(4-fluorophenyl)(methyl)amino]sulfonyl}piperidine-4-carboxamide], 0.022 µM; to `C=CCCC(=O)c1cc(C#N)c(N2CCC(C(=O)NS(=O)(=O)N(C)c3ccccc3)CC2)nc1CN1CCCC1=O` [Example 29, 1-{3-cyano-6-[(2-oxopyrrolidin-1-yl)methyl]-5-pent-4-enoylpyridin-2-yl}-N-{[methyl(phenyl)amino]sulfonyl}piperidine-4-carboxamide], 0.013 µM.

`CCCC(=O)c1cc(Cl)c(N2CCC(C(=O)NS(=O)(=O)Cc3ccccc3)CC2)nc1CN1CCCC1=O` [Example 30, N-(Benzylsulfonyl)-1-{5-butyryl-3-chloro-6-[(2-oxopyrrolidin-1-yl)methyl]pyridin-2-yl}piperidine-4-carboxamide]: the half-maximal inhibitory concentration (IC50) amounted to 0.062 µM.

Turning to `CCCC(=O)c1cc(Cl)c(N2CCC(C(=O)NS(=O)(=O)N(C)c3ccc(F)cc3)CC2)nc1CN1CCCC1=O` [Example 31, 1-{5-Butyryl-3-chloro-6-[(2-oxopyrrolidin-1-yl)methyl]pyridin-2-yl}-N-{[(4-fluorophenyl)(methyl)amino]sulfonyl}piperidine-4-carboxamide], the IC50 was 0.109 µM. Consider `CCCC(=O)c1cc(Cl)c(N2CCC(C(=O)NS(=O)(=O)Cc3ccc(C)cc3)CC2)nc1CN1CCCC1=O` [Example 32, 1-{5-Butyryl-3-chloro-6-[(2-oxopyrrolidin-1-yl)methyl]pyridin-2-yl}-N-[(4-methylbenzyl)sulfonyl]piperidine-4-carboxamide], for which the half-maximal inhibitory concentration (IC50) stood at 0.055 µM. For `CCCC(=O)c1cc(C#N)c(N2CCC(C(=O)NS(=O)(=O)N(C)c3ccc(F)cc3)CC2)nc1CN1CCCC1=O` [Example 33, 1-{5-Butyryl-3-cyano-6-[(2-oxopyrrolidin-1-yl)methyl]pyridin-2-yl}-N-{[(4-fluorophenyl)(methyl)amino]sulfonyl}piperidine-4-carboxamide], the IC50 was determined as 0.011 µM. To `CCCC(=O)c1cc(C#N)c(N2CCC(C(=O)NS(=O)(=O)N(C)c3ccccc3)CC2)nc1CN1CCCC1=O` [Example 34, 1-{5-Butyryl-3-cyano-6-[(2-oxopyrrolidin-1-yl)methyl]pyridin-2-yl}-N-{[methyl(phenyl)amino]sulfonyl}piperidine-4-carboxamide] belongs 0.012 µM.

`CCCC(=O)c1cc(C#N)c(N2CCC(C(=O)NS(=O)(=O)Cc3ccc(OC)cc3)CC2)nc1CN1CCCC1=O` [Example 35, 1-{5-Butyryl-3-cyano-6-[(2-oxopyrrolidin-1-yl)methyl]pyridin-2-yl}-N-[(4-methoxybenzyl)sulfonyl]piperidine-4-carboxamide]: the IC50 amounted to 0.0097 µM.
